Data: patent publication US20240335503A1, “ROMIDEPSIN AS A THERAPEUTIC AGENT FOR NERVE-INJURY INDUCED NEUROPATHIC PAIN AND SPASTICITY” (The United States Government as represented by the …, priority 2021, published 2024)
“Also recorded” adds a separate entry of the source. Where two headings read alike, the source gives them in different places.

Tests used:
[1] = cited from earlier work
humans = conditions: human, in vivo; cited from earlier work
adult mice = conditions: mouse, in vivo
Method: Rationale for Dosing: These initial romidepsin dosages were determined on two interrelated rationales. […] 2) Because it is expected that the utility of romidepsin for pain mitigation would likely require longer-term use than for the oncology indication, a pilot study in mice was performed with a lower dose of romidepsin for a prolonged period of time (once daily injections up to 14 days).

acetyl histone-H3 [2] = conditions: injected intraperitoneally; within 24-hours post-administration; dorsal horn L4 (Guo et al., 2018); FIG. 25; cited from earlier work
[3] = tested on: nerve injury-induced chronic pain; test: Spared nerve injury (SNI) pain model, mechanical-evoked pain; type: in vivo; conditions: mouse SNI, IP once/day for 5 days at 0.25 mg/kg, FIG. 27
Excerpt: An SNI is a transection-type peripheral nerve injury model, whereby a portion of the sciatic nerve innervating the hindlimb is ligated and cut. In this nerve injury model, the common peroneal and tibial nerves are injured, producing consistent and reproducible pain hypersensitivity in the cutaneous territory of the spared sural nerve. Additionally, the SNI leads to prolonged mechanical and thermal hyperresponsiveness in behavioral studies, which closely mimic clinically-described neuropathic pain conditions (Cichon et al., 2018). With an SNI, adult mice rapidly develop maximal neuropathic pain sensitivity within 3 days post-SNI (Benson et al., 2020; Cichon et al., 2018).
To evaluate the efficacy of romidepsin in treating nerve-induced chronic pain, the following comparator groups were prepared (weight-matched, adult male/female equally mixed C57BL/6 mice): Sham (n=5), SNI+Vehicle (n=5), and SNI+romidepsin (n=5). Romidepsin was administered as an intraperitoneal (IP) injection for five consecutive days after SNI (once/day for 5 days: 5 μl per injection at 0.25 mg/kg). Vehicle administration route was the same as romidepsin (1% diluted in DMSO; IP route), and sham animals underwent all procedures except for nerve injury.

acetyl histone-H3 [4] = type: in vivo, mouse; conditions: vs control treated animal tissues; FIG. 17
Method: (§1) As detailed elsewhere herein, the feasibility of “repurposing” a clinically approved drug to address spasticity in SCI will be evaluated. Here, testing the efficacy of romidepsin, an FDA-approved drug, to reduce PAK1 activity in the spinal cord and SCI-induced spasticity has begun. […] Initial test dosages were calculated from human trial data using FDA guidelines for converting drug dosage from human to animal.
To monitor in vivo drug-response using established clinical biomarkers from all animals before and after treatment with romidepsin, histone acetylation was assessed in spinal cord tissue, peripheral blood mononuclear cells (PBMCs), and monocytes from CSF (i.e., ELISA pharmacodynamics assessment) (Cotto et al., 2010); VanderMolen et al., 2011). Liquid samples were collected using routine blood or spinal CSF draws.
(§2) To monitor in vivo drug-response using established clinical biomarkers from all animals before and after intrathecal treatment with romidepsin at MTD, histone acetylation in peripheral blood mononuclear cells (PBMCs) or lymphocytes/monocytes in CSF (i.e., ELISA pharmacodynamics assessment) will be assessed (Cotto et al., 2010; VanderMolen et al., 2011). […]

p-Raf = p-Raf expression in spinal cord neurons (histological analysis); type: in vivo, mouse; conditions: spinal cord after SCI; FIG. 16
Excerpt: Outcome Measures: On days 14, 28, and 35 post-SCI, spinal cord and brain tissue were collected for histological analyses. Tissue was processed using SWITCH clearing and immunohistochemistry performed to analyze protein expression levels of inflammatory markers, i.e., GFAP/OX42 for astro/microgliosis, cfos, p38, p-Raf, or PAK1 activity (Stamboulian et al., 2010); Tan et al., 2011; Tan et al., 2008). Because mice are Thy1-GFP transgenic animals, α-motor neurons were identified using established morphological criteria, including soma size and topographical location (Bandaru et al., 2015; Tan et al., 2012a). GFP-expressing dendritic spines were visualized, and their morphology profiled in association with spasticity. All data was statistically compared across groups (Bandaru et al., 2015; Zhao et al., 2016). To determine the efficacy of romidepsin treatments on SCI-induced spasticity, anatomical and biochemical data were correlated with spasticity outcomes. […]
as §2

PAK1 = PAK1 (Homo sapiens, UniProt Q13153); conditions: cited from earlier work
Chain of PAK1 (Q13153 whole entry): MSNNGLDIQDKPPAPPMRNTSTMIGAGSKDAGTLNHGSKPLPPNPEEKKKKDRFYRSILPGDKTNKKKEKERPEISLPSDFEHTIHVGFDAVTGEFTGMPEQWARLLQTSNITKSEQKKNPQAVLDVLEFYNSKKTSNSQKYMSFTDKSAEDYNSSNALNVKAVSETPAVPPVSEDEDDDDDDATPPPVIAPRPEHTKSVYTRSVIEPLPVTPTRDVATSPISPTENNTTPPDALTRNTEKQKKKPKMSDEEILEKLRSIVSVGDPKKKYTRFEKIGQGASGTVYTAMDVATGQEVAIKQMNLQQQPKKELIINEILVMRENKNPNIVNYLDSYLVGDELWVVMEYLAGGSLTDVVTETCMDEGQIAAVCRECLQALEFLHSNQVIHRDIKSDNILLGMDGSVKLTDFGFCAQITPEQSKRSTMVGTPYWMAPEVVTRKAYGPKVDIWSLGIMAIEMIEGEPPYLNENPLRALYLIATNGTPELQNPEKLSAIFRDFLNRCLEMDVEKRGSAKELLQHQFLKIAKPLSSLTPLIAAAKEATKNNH

SCI-induced spasticity = test: Evoked H-reflex EMG recordings (rate-dependent depression) in SCI spasticity model; type: in vivo, mouse
Method: as §1
Study Design: Four animal groups were prepared (adult m/f mix; 6-8 weeks old; n=60/group); 1) Sham+DMSO/vehicle, 2) Sham+Romidepsin, 3) SCI+DMSO/vehicle, and 4) SCI+Romidepsin. […]
H-reflex electrophysiology-EMG recordings of evoked H-reflex will be performed in the plantar muscle group (Bandaru et al., 2015; Benson et al., 2017; Boulenguez et al., 2010; Nielsen et al., 2007). […] Three trials (10 sweeps/trial) will be recorded for each paired-pulse. Rectified traces will be analyzed. […] The H/M ratio will be calculated using the peak amplitude of M-wave and H-reflex following the test pulse. H-reflex EMG studies provide specific readout only of the monosynaptic circuit, and is therefore an accurate measure of the spinal stretch reflex response without the confounds of supraspinal, interneuronal, or other motor neuron sub-type input (Nielsen et al., 2007).

SCI mouse model = test: Maximum tolerated dose in SCI mouse model (weight loss, paw grip-strength, mobility); type: in vivo
Method: as §1
(§3) Vehicle (1% DMSO) was used as a control treatment.

[5] = as above; type: in vivo; conditions: mouse, in vivo; once/day for 3 days; 10 μl per IP injection; diluted in 1% DMSO
Method: as §1, §3

[6] = tested on: primary cultured spinal cord dorsal horn neurons; test: Dendritic spine density in primary cultured neurons with PAK1 inhibitor; type: cell-based; conditions: PAK1 inhibitor treatment; FIG. 11
Method: To assess whether PAK1 inhibition would disrupt dendritic spines, a morphological correlate of spasticity, the effect of a non-pharmaceutical grade PAK1 inhibitor, IPA3, on primary cultured spinal cord dorsal horn neurons was measured using previous methods (Tan et al., 2011).

SMILES	blood brain barrier (BBB) penetration ([1]; administered systemically in non-human primates or rodents/rats, drug and active metabolites)	half-life ([1]; depending on the organism (Berg et al., 2004)) [h]	half-life ([1]; published PK/PD studies (Berg et al., 2004)) [h]	half-life ([1]; published human PK/PD studies (Berg et al., 2004)) [h]	occurrence of adverse reactions (grade 3 or 4) related to weight loss and fatigue (humans)	adverse effects (ambulation, body mass loss, outward signs of toxicity) (adult mice)	food intake (adult mice)	histone acetylation in neurons (acetyl histone-H3 [2])	mechanical-evoked pain [3]	H3 density in spinal cord tissues (acetyl histone-H3 [4])	expression of p-Raf on Thy-YFP expressing cells (neurons) (p-Raf)	concentrations that significantly reduce PAK1 kinase activity (PAK1; Hirokawa et al., 2005, Maruta, 2011) [nM]	PAK1 protein level (PAK1; at 0.1-1 nM)	RDD of H-reflex (spasticity) (SCI-induced spasticity; SCI animals vs vehicle control, preliminary EMG studies, FIG. 13)	RDD of H-reflex (H/M ratio) (SCI-induced spasticity; SCI mice, IP injection at 0.25 mg/kg vs control vehicle, FIG. 15, 0.25 mg/kg)	maximum tolerated dose (MTD) (SCI mouse model; SCI mouse model, once/day IP injection over 3 days, 0.1 ml) [mg/kg/injection]	body weight (SCI mouse model; mouse, in vivo)	paw-grip strength (SCI mouse model; mouse, in vivo)	MTD at 3 days [5] [mg/kg]	dendritic spine density [6]
C/C=C1\NC(=O)[C@H]2CSSCC/C=C/[C@H](CC(=O)N[C@H](C(C)C)C(=O)N2)OC(=O)[C@H](C(C)C)NC1=O [romidepsin]	can passively penetrate through the blood brain barrier (BBB) in relatively low concentrations	< 10	< 10	< 10	2-8%	no observable adverse effects	appeared the same	upregulation of histone acetylation in neurons; also recorded: upregulation in acetyl histone-H3 in neurons	significant decrease in mechanical-evoked pain; also recorded: significantly decreases mechanical-evoked pain	significant increase in H3 density	significantly decreases	0.1 to 1	without changing	partially restored RDD; also recorded: partial reduction in spasticity	significant restoration of rate-dependent depression (RDD)	1.25	does not affect	does not affect	1.25	–
Oc1ccc2ccccc2c1SSc1c(O)ccc2ccccc12 [IPA3]	–	–	–	–	–	–	–	–	–	–	–	–	–	–	–	–	–	–	–	decreases
